# Test results: patent US8894993B2, “Mitochondria-targeted antioxidants” (Natreon Inc., priority 2006, dated 2014)
# Legend:
# [1] = system: Blood levels of ATP and energy related indices; assay: Blood ATP and energy related indices in mice after forced swimming stress; format: in vivo, Swiss albino mice
# Procedure: Swiss albino mice (20±2 g) were fed orally with—(a) 3,8-(OH)2-DBP and (b) 3-OH-DBP (each 25 mg/Kg b.w.), per day, for 7 days. In case of the controls, only vehicle (0.8% carboxymethyl cellulose in water) was administered for seven days of the experiment. The animals were subjected to ‘forced swimming’ for 30 minutes on the 7th day of the experiment [Pliakas, A. M., Carlson, R. R., Neve, R. L., Konradi, C., Nestler, E. J. and Carlezon, W. A. 2001. J. Neurosci., 21(18), 7397-7403]. Immediately after the swimming, blood was collected from all the animals for analysis of ATP and related nucleotides by HPLC [Smolenska, Z., Kaznowska, Z., Zarowny, D., Simmonds, H. A. and Smolenski, R. T. 1999. Rheumatology, 38, 997-1002; Komarova, S. V., Mosharov, E. V., Vitvitsky, V. M. and Ataullakhanov, F. I. 1999. Blood Cell Mol. Dis., 25(13), 170-179; Marquardt, D. L., Gruber, H. E. and Wasserman, S. I. 1984. Proc. Natl. Acad. Sci., 81, 6192-6196]. AEC (adenylate energy charge) was calculated according to the method of Atkinson and Walton [Atkinson D E & Walton G M, Adenosine triphosphate conservation in metabolic regulation, J Biol Chem, 242 (1967) 3239] and TAN (total adenine nucleotides) was calculated according to an established method [Spencer M K & Katz A, Role of glycogen in control of glycolysis and IMP formation in human muscle during exercise, Am J Physiol, 260 (1991) E859].
# [2] = system: Superoxide dismutase (SOD) activity in liver; assay: Superoxide dismutase activity in liver of mice after restraint stress; format: in vivo, Swiss albino mice; settings: 25 mg/Kg p.o. 7 days, control 0.6
# Procedure: Swiss albino mice (20±2 g) were fed orally with—(a) 3-OH-DBP and (b) 3,8-(OH)2-DBP (each 25 mg/Kg b.w. per day, for 7 days). In case of the controls, only vehicle (0.8% carboxymethyl cellulose in water) was administered for seven days of the experiment. All the animals of all the groups were subjected to restraint stress (for 60 minutes) on the seventh day of the experiment, 2 hours after drug administration, according to a published method [Figueiredo, H. F., Bodie, B. L., Tauchi, M., Dolgas, C. M. and Herman, J. P. 2003. Endocrinology, 144, 5249-5258]. The model was selected in the present experiment, because restraint stress is a widely used model of acute oxidative stress. Immediately after being exposed to stress, the animals were sacrificed, blood was collected for analysis by HPLC of ATP and related nucleotides [Smolenska, Z., Kaznowska, Z., Zarowny, D., Simmonds, H. A. and Smolenski, R. T. 1999. […] AEC (adenylate energy charge) was calculated according to the method of Atkinson and Walton [Atkinson D E & Walton G M, Adenosine triphosphate conservation in metabolic regulation, J Biol Chem, 242 (1967) 3239] and TAN (total adenine nucleotides) was calculated according to an established method [Spencer M K & Katz A, Role of glycogen in control of glycolysis and IMP formation in human muscle during exercise, Am J Physiol, 260 (1991) E859]. […]
# [3] = Stability of reduced CoQ10 (CoQH2) by 3,8-(OH)2-DBP at different pH, HPLC; format: physicochemical
# [4] = as above; format: physicochemical; remark: listed apart in the source
# Procedure: Two mg of solid CoQ10 (SRL, India), in an airtight vial was dissolved in 1 ml of methanol. After thorough vortexing, 5 mg of solid NaBH4 (Merck India) was added, 1 mg at a time, to the yellow colored solution of CoQ10 in methanol and kept in an ice-bath for a few minutes. The vial was kept shut to avoid contact with air but opened occasionally to avoid generation of pressure inside due to accumulation of hydrogen. After the reduction reaction, a clear colorless solution was obtained to which methanolic solution of 3,8-(OH)2-DBP with a concentration of 1 mg/ml (>90% pure) was added in a ratio of 1:1 to obtain a final concentration of the mixture—reduced CoQ10 […] DBP 0.5 mg/ml. This solution was analyzed by HPLC for reduced CoQ10 content at different time intervals. A control was prepared in similar fashion except that no DBP was added. The pH of the solutions was determined to be 8 using pH paper. To obtain solutions of reduced CoQ10 with pH 7 and pH 3, aliquots of concentrated HCl were added to the methanolic solution of reduced CoQ10 at pH 8. Afterwards, a solution of DBP was added and analysis by HPLC at different time intervals was conducted, as before.
# Mobile phase—Methanol:Acetonitrile:Ethanol 30:30:40
# Detection—PDA 290 nm for reduced CoQ10
smiles,measurement,setting,value
"O=c1oc2cc(O)ccc2c2ccc(O)cc12 [3,8-(OH)2-DBP, 3,8-dihydroxydibenzo-α-pyrone]","content of ATP, AEC values and ATP/ADP ratio (in blood), in words",[1]; albino mice engaged in forced swimming,significant improvement only in some parameters
same,ATP,"[1]; blood, forced swimming, 25 mg/Kg p.o. 7 days, mean ± SEM of 6, control 0.60 ± 0.01",0.68 ± 0.03 µM
same,TAN,"[1]; blood, forced swimming, 25 mg/Kg p.o. 7 days, mean ± SEM of 6, control 0.79 ± 0.01",0.86 ± 0.03 µM
same,AEC,"[1]; blood, forced swimming, 25 mg/Kg p.o. 7 days, mean ± SEM of 6, control 0.86 ± 0.003",0.88 ± 0.003
same,ATP/ADP ratio,"[1]; blood, forced swimming, 25 mg/Kg p.o. 7 days, mean ± SEM of 6, control 3.84 ± 0.09",4.30 ± 0.12
same,SOD activity in liver,[2],0.98 U/gm tissue
same,"Regenerated CoQ10 in presence of 3,8-(OH)2-DBP","[3]; autoxidation of CoQH2, pH 8, 80 min",151.28 µg/mL
same,"Regenerated CoQ10 in presence of 3,8-(OH)2-DBP","[3]; autoxidation of CoQH2, pH 8, 100 min",202.31 µg/mL
same,"Regenerated CoQ10 in presence of 3,8-(OH)2-DBP","[4]; autoxidation of CoQH2, pH 8, 0 min",0 µg/mL
same,"Regenerated CoQ10 in presence of 3,8-(OH)2-DBP","[4]; autoxidation of CoQH2, pH 8, 20 min",10.63 µg/mL
same,"Regenerated CoQ10 in presence of 3,8-(OH)2-DBP","[4]; autoxidation of CoQH2, pH 8, 40 min",37.37 µg/mL
same,"Regenerated CoQ10 in presence of 3,8-(OH)2-DBP","[4]; autoxidation of CoQH2, pH 8, 60 min",99.55 µg/mL
same,Reduced CoQ10 remaining in presence of DBP,"[4]; pH 3, 0 hour",100.00%
same,Reduced CoQ10 remaining in presence of DBP,"[4]; pH 3, 48 hour",79.27%
same,Reduced CoQ10 remaining in presence of DBP,"[4]; pH 3, 72 hour",73.91%
same,Reduced CoQ10 remaining in presence of DBP,"[4]; pH 7, 0 hour",100.00%
same,Reduced CoQ10 remaining in presence of DBP,"[4]; pH 7, 48 hour",10.79%
same,Reduced CoQ10 remaining in presence of DBP,"[4]; pH 7, 72 hour",6.33%
same,Reduced CoQ10 remaining in presence of DBP,"[4]; pH 8, 0 min, DBP 0.5 mg/ml",100.00%
same,Reduced CoQ10 remaining in presence of DBP,"[4]; pH 8, 40 min, DBP 0.5 mg/ml",93.44%
same,Reduced CoQ10 remaining in presence of DBP,"[4]; pH 8, 60 min, DBP 0.5 mg/ml",80.21%
same,Reduced CoQ10 remaining in presence of DBP,"[4]; pH 8, 80 min, DBP 0.5 mg/ml",66.57%
same,Reduced CoQ10 remaining in presence of DBP,"[4]; pH 8, 100 min, DBP 0.5 mg/ml",51.85%
same,"protection of reduced CoQ10 from oxidative degradation, in words",[4]; pH range 3 to 8,significantly protects
